Laboratory results from patent US8003343B2, “Method for determining diamine oxidase” (Sciotec Diagnostic Technologies GmbH, priority 2005, dated 2011).

Target: diamine oxidase (DAO; EC 1.4.3.6) (Homo sapiens, UniProt P19801)
Assay: biochemical
Experimental: The sample is contacted and mixed with the given amount of diamine preferably dissolved in an aqueous solution. It is, of course, also possible to directly add a given amount of diamine to a defined amount of sample (e.g. in crystal form). […] After having incubated this mixture for a fixed period during which the diamine contained in the aqueous solution is degraded in the presence of DAO as a function of the amount of the latter, the diamine remaining in the mixture is derivatized by 95%, preferably 99%, even more preferred 99.5%, in particular 100%. The incubation conditions must be selected such that the DAO possibly present in the sample is able to convert the present diamine. DAO is an enzyme which converts diamine substrates such as, e.g. histamine, at such reaction rates that the incubation time will preferably last for at least 30 minutes.
FIG. 3 depicts the relative enzymatic activity of a defined amount of DAO in a sample as a function of the amount of histamine used.

diamine oxidase (DAO; EC 1.4.3.6), sequence (P19801 20-751, species assumed): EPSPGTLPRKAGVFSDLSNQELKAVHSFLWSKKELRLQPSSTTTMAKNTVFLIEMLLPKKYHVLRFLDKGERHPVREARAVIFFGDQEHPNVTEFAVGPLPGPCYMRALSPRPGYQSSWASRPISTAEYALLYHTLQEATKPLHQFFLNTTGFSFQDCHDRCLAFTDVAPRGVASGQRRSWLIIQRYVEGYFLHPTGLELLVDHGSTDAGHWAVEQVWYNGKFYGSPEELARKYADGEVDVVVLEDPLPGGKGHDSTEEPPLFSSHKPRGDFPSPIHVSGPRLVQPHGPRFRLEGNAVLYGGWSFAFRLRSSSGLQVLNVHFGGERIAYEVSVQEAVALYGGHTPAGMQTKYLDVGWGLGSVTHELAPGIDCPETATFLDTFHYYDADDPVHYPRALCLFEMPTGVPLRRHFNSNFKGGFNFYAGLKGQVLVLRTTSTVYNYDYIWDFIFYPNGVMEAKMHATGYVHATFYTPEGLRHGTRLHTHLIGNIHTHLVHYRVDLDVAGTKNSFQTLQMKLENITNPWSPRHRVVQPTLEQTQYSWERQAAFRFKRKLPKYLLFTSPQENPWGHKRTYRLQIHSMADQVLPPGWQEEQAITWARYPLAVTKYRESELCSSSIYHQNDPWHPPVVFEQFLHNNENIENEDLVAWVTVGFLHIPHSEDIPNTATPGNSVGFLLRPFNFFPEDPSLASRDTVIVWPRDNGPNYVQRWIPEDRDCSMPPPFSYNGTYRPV

inhibition of DAO (addition of at least 100 μM histamine): at least partially inhibited
inhibition at 500 µM (read-out: inhibition of DAO): ~60%
SMILES: NCCc1c[nH]cn1 [histamine, 1H-imidazole-4-ethylamine]
